Test results reported in PubChem BioAssay (NCI).
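Grown in 96-well plates, cells were treated for 48 hours with each compound at five concentrations. Insufficient inhibition: endpoint recorded as highest concentration tested. GI50 = concentration required for 50% inhibition of growth. TGI denotes the concentration required for complete inhibition of growth.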

Key:
Test in all cases: inhibition of tumour cell growth, NCI panel, 48 h
OVCAR-3 ovarian = system: OVCAR-3 ovarian
786-0 renal = system: 786-0 renal
PC-3 prostate = system: PC-3 prostate
A549 NSCLC = system: A549 NSCLC
HCC-2998 colon = system: HCC-2998 colon
MDA-MB-435 = system: MDA-MB-435
SK-OV-3 ovarian = system: SK-OV-3 ovarian
UO-31 renal = system: UO-31 renal
BT-549 breast = system: BT-549 breast
DU-145 prostate = system: DU-145 prostate
KM12 colon = system: KM12 colon
A498 renal = system: A498 renal
NCI-H522 lung = system: NCI-H522 lung
NCI-H226 lung = system: NCI-H226 lung
MOLT-4 leukemia = system: MOLT-4 leukemia
HOP-62 NSCLC = system: HOP-62 NSCLC
SW-620 colon = system: SW-620 colon
U251 CNS = system: U251 CNS
SF-268 CNS = system: SF-268 CNS
NCI/ADR-RES ovarian = system: NCI/ADR-RES ovarian
SF-539 CNS = system: SF-539 CNS
SN12C renal = system: SN12C renal
NCI-H460 lung = system: NCI-H460 lung
SNB-19 CNS = system: SNB-19 CNS
HL-60(TB) leukemia = system: HL-60(TB) leukemia
SF-295 CNS = system: SF-295 CNS
HT29 colon = system: HT29 colon
RPMI-8226 leukemia = system: RPMI-8226 leukemia
MDA-MB-231 breast = system: MDA-MB-231 breast
HCT-15 colon = system: HCT-15 colon
SK-MEL-2 melanoma = system: SK-MEL-2 melanoma
MDA-MB-468 breast = system: MDA-MB-468 breast
COLO 205 colon = system: COLO 205 colon
TK-10 renal = system: TK-10 renal
SNB-75 CNS = system: SNB-75 CNS
UACC-62 melanoma = system: UACC-62 melanoma
K-562 leukemia = system: K-562 leukemia
UACC-257 melanoma = system: UACC-257 melanoma
OVCAR-8 ovarian = system: OVCAR-8 ovarian
MCF7 breast = system: MCF7 breast
SK-MEL-5 melanoma = system: SK-MEL-5 melanoma
ACHN renal = system: ACHN renal
CAKI-1 renal = system: CAKI-1 renal
MALME-3M melanoma = system: MALME-3M melanoma
OVCAR-5 ovarian = system: OVCAR-5 ovarian
T-47D breast = system: T-47D breast
SR leukemia = system: SR leukemia
HCT-116 colon = system: HCT-116 colon
IGROV1 ovarian = system: IGROV1 ovarian
OVCAR-4 ovarian = system: OVCAR-4 ovarian
NCI-H23 lung = system: NCI-H23 lung
HOP-92 NSCLC = system: HOP-92 NSCLC
M14 melanoma = system: M14 melanoma
CCRF-CEM leukemia = system: CCRF-CEM leukemia
EKVX NSCLC = system: EKVX NSCLC
LOX IMVI melanoma = system: LOX IMVI melanoma
SK-MEL-28 melanoma = system: SK-MEL-28 melanoma

COc1cc(/C=C/C(=O)c2cc(OC)c(OC)c(OC)c2)ccc1Oc1nc(Nc2ccc(F)cc2)nc(N(C)C)n1
GI50 (OVCAR-3 ovarian): 2.57 µM
TGI (OVCAR-3 ovarian): > 100 µM
GI50 (786-0 renal): 1.45 µM
TGI (786-0 renal): 3.23 µM
GI50 (PC-3 prostate): 2.77 µM
TGI (PC-3 prostate): 30.9 µM
GI50 (A549 NSCLC): 4.49 µM
TGI (A549 NSCLC): 19.2 µM
GI50 (HCC-2998 colon): 2.03 µM
TGI (HCC-2998 colon): 4.16 µM
GI50 (MDA-MB-435): 1.63 µM
TGI (MDA-MB-435): 3.54 µM
GI50 (SK-OV-3 ovarian): 8.42 µM
TGI (SK-OV-3 ovarian): 29.9 µM
GI50 (UO-31 renal): 1.12 µM
TGI (UO-31 renal): 2.36 µM
GI50 (BT-549 breast): 1.56 µM
TGI (BT-549 breast): 3.2 µM
GI50 (DU-145 prostate): 3.99 µM
TGI (DU-145 prostate): 18.7 µM
GI50 (KM12 colon): 3.63 µM
TGI (KM12 colon): 88.6 µM
GI50 (A498 renal): 3.99 µM
TGI (A498 renal): 15.2 µM
GI50 (NCI-H522 lung): 1.47 µM
TGI (NCI-H522 lung): 3.24 µM
GI50 (NCI-H226 lung): 1.44 µM
TGI (NCI-H226 lung): 3.23 µM
GI50 (MOLT-4 leukemia): 0.472 µM
TGI (MOLT-4 leukemia): > 100 µM
GI50 (HOP-62 NSCLC): 1.83 µM
TGI (HOP-62 NSCLC): 3.88 µM
GI50 (SW-620 colon): 1.55 µM
TGI (SW-620 colon): 3.27 µM
GI50 (U251 CNS): 0.503 µM
TGI (U251 CNS): 2.43 µM
GI50 (SF-268 CNS): 3.43 µM
TGI (SF-268 CNS): > 100 µM
GI50 (NCI/ADR-RES ovarian): 1.42 µM
TGI (NCI/ADR-RES ovarian): 3.39 µM
GI50 (SF-539 CNS): 1.64 µM
TGI (SF-539 CNS): 3.09 µM
GI50 (SN12C renal): 1.23 µM
TGI (SN12C renal): 2.73 µM
GI50 (NCI-H460 lung): 1.45 µM
TGI (NCI-H460 lung): 3.3 µM
GI50 (SNB-19 CNS): 1.86 µM
TGI (SNB-19 CNS): 4.58 µM
GI50 (HL-60(TB) leukemia): 2.21 µM
TGI (HL-60(TB) leukemia): 8.24 µM
GI50 (SF-295 CNS): 1.98 µM
TGI (SF-295 CNS): 5.49 µM
GI50 (HT29 colon): 1.54 µM
TGI (HT29 colon): 3.55 µM
GI50 (RPMI-8226 leukemia): 0.751 µM
TGI (RPMI-8226 leukemia): 5.21 µM
GI50 (MDA-MB-231 breast): 1.48 µM
TGI (MDA-MB-231 breast): 3.58 µM
GI50 (HCT-15 colon): 1.18 µM
TGI (HCT-15 colon): 2.75 µM
GI50 (SK-MEL-2 melanoma): 1.69 µM
TGI (SK-MEL-2 melanoma): 3.79 µM
GI50 (MDA-MB-468 breast): 1.35 µM
TGI (MDA-MB-468 breast): 3.51 µM
GI50 (COLO 205 colon): 4.45 µM
TGI (COLO 205 colon): 16.8 µM
GI50 (TK-10 renal): 2.53 µM
TGI (TK-10 renal): 7.3 µM
GI50 (SNB-75 CNS): 2.54 µM
TGI (SNB-75 CNS): 21.1 µM
GI50 (UACC-62 melanoma): 1.41 µM
TGI (UACC-62 melanoma): 3 µM
GI50 (K-562 leukemia): 1.4 µM
TGI (K-562 leukemia): > 100 µM
GI50 (UACC-257 melanoma): 2.83 µM
TGI (UACC-257 melanoma): 12.6 µM
GI50 (OVCAR-8 ovarian): 1.55 µM
TGI (OVCAR-8 ovarian): 6.57 µM
GI50 (MCF7 breast): 1.06 µM
TGI (MCF7 breast): 4.07 µM
GI50 (SK-MEL-5 melanoma): 2.16 µM
TGI (SK-MEL-5 melanoma): 4.83 µM
GI50 (ACHN renal): 2.3 µM
TGI (ACHN renal): 7.48 µM
GI50 (CAKI-1 renal): 1.98 µM
TGI (CAKI-1 renal): 6.67 µM
GI50 (MALME-3M melanoma): 1.75 µM
TGI (MALME-3M melanoma): 4.21 µM
GI50 (OVCAR-5 ovarian): 1.48 µM
TGI (OVCAR-5 ovarian): 3.89 µM
GI50 (T-47D breast): 1.87 µM
TGI (T-47D breast): 56.1 µM
GI50 (SR leukemia): 0.7 µM
TGI (SR leukemia): > 100 µM
GI50 (HCT-116 colon): 1.4 µM
TGI (HCT-116 colon): 3.18 µM
GI50 (IGROV1 ovarian): 1.93 µM
TGI (IGROV1 ovarian): 4.49 µM
GI50 (OVCAR-4 ovarian): 2.07 µM
TGI (OVCAR-4 ovarian): 10.6 µM
GI50 (NCI-H23 lung): 1.63 µM
TGI (NCI-H23 lung): 3.63 µM
GI50 (HOP-92 NSCLC): 1.67 µM
TGI (HOP-92 NSCLC): 6.72 µM
GI50 (M14 melanoma): 2.83 µM
TGI (M14 melanoma): 10.8 µM
GI50 (CCRF-CEM leukemia): 2.19 µM
TGI (CCRF-CEM leukemia): > 100 µM
GI50 (EKVX NSCLC): 2.15 µM
TGI (EKVX NSCLC): 9.12 µM
GI50 (LOX IMVI melanoma): 0.478 µM
TGI (LOX IMVI melanoma): 1.69 µM
GI50 (SK-MEL-28 melanoma): 1.8 µM
TGI (SK-MEL-28 melanoma): 4.07 µM
